For assay [1], the system named is patients suffering from impaired fasting glucose, impaired glucose tolerance and abdominal obesity. The assay can be described thus: Second pilot double-blind placebo-controlled randomized study, Cpd 29 80 mg/day, 28 days. The conditions noted are these: 80 mg/day oral. The format is in vivo, human. The protocol:
1-[4-methylthiophenyl]-3-[3,5-dimethyl-4-carboxydimethylmethyloxyphenyl]prop-2-en-1-one (Cpd 29 of WO 2004/005233) has been formulated as hard shell capsules containing 5, 10 or 20 mg of the compound. The compound (80 mg) was administered orally once daily for 28 days. The study has been performed in two parallel groups in double-blind conditions: placebo or Cpd 29 of WO 2004/005233.
The tolerability and safety of once-a-day administrations, as well as the efficacy in improving plasma lipids and glucose homeostasis compared with placebo, were evaluated in two pilot trials using relevant biochemical parameters. The data were used to calculate the percentage of change due to the compound when compared to the placebo after 28 days of treatment.
A second pilot, double-blind, placebo controlled, randomized study has been performed in patients suffering from impaired fasting glucose, impaired glucose tolerance and abdominal obesity for assessing the tolerability and safety of once-a-day administrations of oral doses of Cpd 29 of WO 2004/005233 (at the dose of 80 mg/day), as well as the efficacy on glucose and lipid metabolism.

For a further assay, the system named is hApoE2 KI mice. In words: hApoE2 KI mice on Western diet, 2 weeks, histological scores of liver steatosis and intralobular inflammation. Type of assay: in vivo. Conditions: 30 mg/kg/day. As to the method: (§1) Animals were fed a Western diet (20% saturated fat and 0.2% cholesterol, Harlan Teklad TD88137) during 2 weeks in the first study, that involved the daily administration of Cpd 29 (at 30 mg/kg/day by oral gavage), and during 6 weeks in the second study, that involved the daily administration of Compound 1 of WO 2007147879 (Cpd1, at 30 mg/kg/day by oral gavage). Control animals were treated with vehicle only (Carboxymethlycellulose 1%+Tween-80 0.1%). Animals had access to food and water ad libitum.
(§2) At the end of the studies, the animals were weighed and sacrificed under anesthesia. Blood was collected from the retro-orbital sinus; plasma was obtained by centrifugation (4 000 rpm, at 4° C. for 15 min) and subsequently frozen and stored at −20° C. Tissues and livers were isolated and snap-frozen in liquid nitrogen and stored at −80° C. for subsequent analysis (gene expression and biochemistry) or fixed in 4% paraformaldehyde for histology.
Formalin-fixed liver tissue was processed, and 5-μm-thick paraffin sections were stained with Hematoxylin and Eosin. The histological analysis of stained liver sections was carried out in blind conditions to quantify liver steatosis and liver intralobular inflammation. Liver steatosis was scored from 0 to 3 as follows: 0 (very slightly affected), 1 (slightly affected), 2 (moderately affected), 3 (highly affected). Liver intralobular inflammation was also scored depending on the number of inflammatory foci counted by field of observation as follows: 0 (<1 focus/field), 1 (1 to 2 foci/field), 2 (2 to 4 foci/field) 3 (more than 4 foci/field).
Exemplary compounds of the General Formula (I) were tested in vivo in a high fat diet mice model. hApoE2 KI and hApoE2 KI/PPARalpha KO (“humanized” ApoE2 knock-in mice deficient for the mPPARalpha gene) were fed a Western diet and daily treated with the Cpd 29 at 30 mg/kg/day during 2 weeks. At the end of the protocol, liver steatosis and intra-lobular inflammation were evaluated in the control and treated mice by means of histological analysis and specific scores.

Assay [2] concerns hApoE2 KI/PPARalpha KO mice. In words: hApoE2 KI/PPARalpha KO mice on Western diet, hepatic gene expression by quantitative RT-PCR. Type of assay: in vivo. The conditions noted are these: 30 mg/kg/day by gavage, 6 weeks. As to the method: (§3) The compounds of the General Formula (I) were tested in vivo in a high fat diet mice model. Dyslipidemic “humanized” hApoE2 KI deficient for PPARalpha were fed a Western diet and treated during 6 weeks. The compounds of interest, including the Compound 29 of WO 2004/005233 at 30 mg/kg/day and the Compound 1 of WO 2007/147879 at 30 mg/kg/day were orally administrated by gavage. At the end of the protocol, animals were sacrificed, livers were harvested and the hepatic expression of relevant genes implicated in the liver inflammation and the fibrosis processes were evaluated by quantitative RT-PCR. In parallel, liver triglycerides contents were evaluated (Panels A-D). Statistical analysis was performed as indicated for FIG. 1.
as §1, §2
Total RNA was isolated from frozen livers using the NucleoSpin® 96 RNA kit (Macherey Nagel), according to the manufacturer's instructions. Reverse transcription was performed on 1 μg of total RNA by action of 1 μl of MMLV-RT enzyme (Invitrogen) during 1 hour at 37° C. in a total volume of 30 μl. The reaction conditions were 1× buffer (Invitrogen), 1.5 mM DTT (Invitrogen), 0.18 mM dNTPs (Promega), 200 ng pdN6 (Amersham), 30U RNase inhibitor (Promega). Quantitative PCR was then carried out using the MyiQ Single-Color Real-Time PCR Detection System (Biorad). Briefly PCR reactions were performed in 96 well plates on 5 μl of diluted reverse transcription mix using the iQ SYBR Green Supermix kit. The reaction conditions were: 25 μl of volume reaction, 3 mM of MgCl2, and 0.5 μl of each reverse and forward primer solutions (10 pMol), Tm of 60° C.
The quantity of fluorescence emitted is directly proportional to the quantity of complementary DNA present at the start of the reaction and amplified during the PCR. The relative levels of expression were determined using the standard curve for each transcript. The results were then normalized in regard to the signals obtained with the 36B4 control (a reference transcript for hepatic gene expression). The induction factor, i.e. the ratio between the relative signal induced by the compound according to the invention and the average of the values relating to the control group, was then calculated for each sample. The higher this factor, the more the compound promotes target gene expression. The final result is depicted as the average of the induction values in each experimental group.
(§4) In another study, the liver-specific anti-inflammatory and anti-fibrotic properties effects of Cpd 29 and Compound 1 of WO 2007/147879 (Cpd 1) were evaluated in the hApoE2 KI/PPARalpha KO mice that were fed a Western diet and daily treated with the selected compounds during 6 weeks.

In assay [3] the test system is hApoE2 KI/PPARalpha KO mice. The assay can be described thus: hApoE2 KI/PPARalpha KO mice on Western diet, hepatic lipid analysis (liver triglycerides). Conditions: 30 mg/kg/day by gavage, 6 weeks, FIG. 4D. The format is in vivo. As to the method: as §3
Animals were fed a Western diet (20% saturated fat and 0.2% cholesterol, Harlan Teklad TD88137) during 2 weeks in the first study, that involved the daily administration of Cpd 29 (at 30 mg/kg/day by oral gavage), and during 6 weeks in the second study, that involved the daily administration of Compound 1 of WO 2007147879 (Cpd1, at 30 mg/kg/day by oral gavage). […]
as §4

Turning to “1-[4-methylthiophenyl]-3-[3,5-dimethyl-4-carboxydimethylmethyloxyphenyl]prop-2-en-1-one [Cpd 29]”, the LDL-C result in assay [1] is listed as “reduced”. Besides, the “plasma triglycerides, change relative to placebo” value in assay [1] (p<0.001) is reported as −25%. In addition, in assay [1] (p<0.01), the “HDL-C, change relative to placebo” value was “+9%”; the “fasting insulinemia, change relative to placebo” value is given as −25%; the “insulin resistance index, HOMA-IR, change relative to placebo” value is reported as −31%; the “liver acute phase inflammation marker haptoglobin” value is reported as “reduction”. Also, the “reduction of Gamma Glutamyl transpeptidase level” value in assay [1] (p<0.01) is 15%. Also, in assay [1] (p<0.05), the “fasting plasma glucose, change relative to placebo” value is reported as −5%. Besides, in the assay with hApoE2 KI mice (hApoE2 KI mice, Western diet), the “development of liver inflammation induced by the diet” value is “inhibits” and the “development of liver steatosis induced by the diet” value is “inhibits”. Further, in the assay on hApoE2 KI mice (share of group with score 0 (<1 focus/field), hApoE2 KI), the “Liver Inflammation (score) 0” value amounted to 100%. Besides, the “Liver Steatosis (score) 0” value with hApoE2 KI mice (share of group with score 0 (very slightly affected), hApoE2 KI) worked out at 83%. In the assay on hApoE2 KI mice (share of group with score 1 (1 to 2 foci/field), hApoE2 KI), the “Liver Inflammation (score) 1” value came out at 0%. Further, the “Liver Steatosis (score) 1” value in the assay on hApoE2 KI mice (share of group with score 1 (slightly affected), hApoE2 KI) worked out at 17%. Moreover, in the assay on hApoE2 KI mice (share of group with score 2 (2 to 4 foci/field), hApoE2 KI), the “Liver Inflammation (score) 2” value came to 0%. The “Liver Steatosis (score) 2” value in the assay with hApoE2 KI mice (share of group with score 2 (moderately affected), hApoE2 KI) is reported as 0%. Moreover, the “Liver Steatosis (score) 3” value in the assay on hApoE2 KI mice (share of group with score 3 (highly affected), hApoE2 KI) was 0%. In the assay with hApoE2 KI mice (share of group with score 3 (more than 4 foci/field), hApoE2 KI), the “Liver Inflammation (score) 3” value amounted to 0%. Besides, the “liver expression of TNFα” value in assay [2] (FIG. 4A) was “inhibited”. In addition, in assay [2] (FIG. 4B), the “liver expression of TGFβ” value is listed as “inhibited”. Moreover, in assay [2] (FIG. 4C), the “liver expression of collagen” value is recorded as “inhibited”. The “triglycerides accumulation in the liver” value in assay [3] was “prevented”.

The record behind these values is US10722575B2, “Use of 1,3-diphenylprop-2-en-1-one derivatives for treating liver disorders” (GENFIT, priority 2009, dated 2020).
